Patent US20230203060A1 (GENFLEET THERAPEUTICS (SHANGHAI) INC., priority 2020, published 2023)
pIC50: −log10 of the molar value. Where a name gives a salt, the structure may show the parent alone.

Tests used:
KRAS G12C = target: T1, KRAS G12C (Homo sapiens, UniProt P01116, G12C); experiment: KRAS G12C NEA-HTRF experiment (SOS1-catalyzed displacement of GDP by GTP); type: biochemical
T1 construct: purchased Reactionbiology
How it was run: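 His-tagged KRAS G12C preloaded with DY647-GDP was preincubated 15 min at 20 °C with compound, then exchanged with SOS1 (0.2 μM working solution) and GTP (200 μM working solution) for 2 h at 20 °C in the dark. HTRF 665/615 nm ratio with anti-His-Tb was normalised to T0 and no-compound controls; IC50 by four-parameter fit.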

[1] = test system: phosphorylated ERK downstream of KRAS G12C in MIA PaCa2 cells; experiment: Cell p-ERK detection experiment (HTRF) in MIA PaCa2; type: cell-based, human; conditions: Homo sapiens, MIA PaCa-2, 2 h, MIA PaCa2 cells, 2 hours with compound, Advance ERK phospho-T202/Y204 HTRF kit; read-out: p-ERK IC50
How it was run: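 Phospho-ERK (T202/Y204) measured by HTRF after 30 min lysis and 4 h antibody incubation in MIA PaCa2 (KRAS G12C) cells, seeded at 2.5E4 per well and treated 2 h with compounds in 3.16-fold steps, final DMSO 0.1%. IC50 from a four-parameter fit of percent inhibition relative to DMSO and blank wells.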

T1 sequence (P01116 1-188 isoform P01116-2 G12C): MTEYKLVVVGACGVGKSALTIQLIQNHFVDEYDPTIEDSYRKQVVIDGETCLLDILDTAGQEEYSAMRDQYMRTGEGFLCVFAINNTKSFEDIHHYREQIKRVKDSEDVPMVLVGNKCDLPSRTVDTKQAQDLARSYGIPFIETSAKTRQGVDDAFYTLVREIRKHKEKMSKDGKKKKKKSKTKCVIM

Row | pIC50 (KRAS G12C) | pIC50 [1] | Structure (SMILES)
1 | 8.05 | 7.77 | C=CC(=O)N1CCN2C(=O)c3c(N4CCN(C(=O)C5CC5)C[C@@H]4C)nc(-c4c(O)cccc4F)c(Cl)c3OC[C@H]2C1 [Z320-1, (6aR)-8-acryloyl-4-chloro-1-((S)-4-(cyclopropanecarbonyl)-2-methylpiperazin-1-yl)-3-(2-fluoro-6-hydroxyphenyl)-6,6a,7,8,9,10-hexahydro-12H-pyrazino[2,1-c]pyrido[3,4-f][1,4]oxazepin-12-one]
2 | 8.15 | 8.10 | C=CC(=O)N1CCN2C(=O)c3c(N4C[C@@](C)(O)CC4(C)C)nc(-c4c(O)cccc4F)c(Cl)c3OC[C@H]2C1 (single isomer, unassigned) [Z243-1]
3 | 7.48 | 7.21 | C=CC(=O)N1CCN2C(=O)c3c(N4CCN(C(C)=O)C(C)(C)C4)nc(-c4c(O)cccc4F)c(Cl)c3OC[C@H]2C1 [Z315, (6aR)-1-(4-acetyl-3,3-dimethylpiperazin-1-yl)-8-acryloyl-4-chloro-3-(2-fluoro-6-hydroxyphenyl)-6,6a,7,8,9,10-hexahydro-12H-pyrazino[2,1-c]pyrido[3,4-f][1,4]oxazepin-12-one]
4 | 7.12 | 7.05 | C=CC(=O)N1CCN2C(=O)c3c(N4Cc5cn(C)nc5[C@H]4C)nc(-c4c(O)cccc4F)c(Cl)c3OC[C@H]2C1 (single isomer, unassigned) [Z291-1S, trifluoroacetate]
5 | 7.59 | 7.51 | C=CC(=O)N1CCN2C(=O)c3c(N4C[C@@H](OC)CC4(C)C)nc(-c4c(O)cccc4F)c(Cl)c3OC[C@H]2C1 (single isomer, unassigned) [Z244-1]
6 | 7.21 | 7.47 | C=CC(=O)N1CCN2C(=O)c3c(N4C[C@H](N(C)C)CC4(C)C)nc(-c4c(O)cccc4F)c(Cl)c3OC[C@H]2C1 (single isomer, unassigned) [Z324-2]
7 | 7.96 | 7.70 | C=CC(=O)N1CCN2C(=O)c3c(N4C[C@H](CO)CC4(C)C)nc(-c4c(O)cccc4F)c(Cl)c3OC[C@H]2C1 (single isomer, unassigned) [Z240-2]
8 | 7.46 | 7.21 | C=CC(=O)N1CCN2C(=O)c3c(N4C[C@H](O)CC4(C)C)nc(-c4ccccc4F)c(Cl)c3OC[C@H]2C1 (single isomer, unassigned) [Z325-2]
9 | 7.18 | 7.06 | C=CC(=O)N1CCN2C(=O)c3c(N4CC[C@@H]5C[C@@H]54)nc(-c4c(O)cccc4F)c(Cl)c3OC[C@H]2C1 (single isomer, unassigned) [Z39-2]
10 | 8.15 | 8.10 | C=CC(=O)N1CCN2C(=O)c3c(N4CC(N(C)CCOC)CC4(C)C)nc(-c4c(O)cccc4F)c(Cl)c3OCC2C1 (single isomer, unassigned) [Z296-1]
11 | 7.37 | 7.21 | C=CC(=O)N1CCN2C(=O)c3c(N4CCOCC4)nc(-c4nc(N)cc(C)c4C(F)(F)F)c(Cl)c3OC[C@H]2C1 [Z314]
12 | 7.33 | 7.72 | C=CC(=O)N1CCN2C(=O)c3c(N4CC(OC)CC4(C)C)nc(-c4c(O)cccc4F)c(Cl)c3OC[C@H]2C1 (stereo partly drawn) [Z244, (6aR)-8-acryloyl-4-chloro-3-(2-fluoro-6-hydroxyphenyl)-1-(4-methoxy-2,2-dimethylpyrrolidin-1-yl)-12-oxo-6,6a,7,8,9,10-hexahydro-12H-pyrazino[2,1-c]pyrido[3,4-f][1,4]oxazepin-12-one]
13 | 8.05 | 7.70 | C=CC(=O)N1CCN2C(=O)c3c(N4CCN(C(=O)CC)C[C@@H]4C)nc(-c4c(O)cccc4F)c(Cl)c3OC[C@H]2C1 [Z316-1, (6aR)-8-acryloyl-4-chloro-3-(2-fluoro-6-hydroxyphenyl)-1-((S)-2-methyl-4-propionylpiperazin-1-yl)-6,6a,7,8,9,10-hexahydro-12H-pyrazino[2,1-c]pyrido[3,4-f][1,4]oxazepin-12-one]
14 | 7.46 | 6.97 | C=CC(=O)N1CCN2C(=O)c3c(N4C[C@@H](O)CC4(C)C)nc(-c4c(F)ccc(Cl)c4O)c(F)c3OC[C@H]2C1 (single isomer, unassigned) [Z341-1]
15 | 8.10 | 7.74 | C=CC(=O)N1CCN2C(=O)c3c(N4C[C@@H](N5CCOCC5)CC4(C)C)nc(-c4c(O)cccc4F)c(Cl)c3OC[C@H]2C1 (single isomer, unassigned) [Z297-2]
16 | 8.10 | 8.22 | C=CC(=O)N1CCN2C(=O)c3c(N4CC(N(C)C5COC5)CC4(C)C)nc(-c4c(O)cccc4F)c(Cl)c3OC[C@H]2C1 (stereo partly drawn) [Z326, (6aR)-8-acryloyl-4-chloro-1-(2,2-dimethyl-4-(methyl(oxetan-3-yl)amino)pyrrolidin-1-yl)-3-(2-fluoro-6-hydroxyphenyl)-6,6a,7,8,9,10-hexahydro-12H-pyrazino[2,1-c]pyrido[3,4-f][1,4]oxazepin-12-one]
17 | 8.00 | 8.00 | C=CC(=O)N1CCN2C(=O)c3c(N4CC(N5CCOCC5)CC4(C)C)nc(-c4c(O)cccc4F)c(Cl)c3OC[C@H]2C1 (stereo partly drawn) [Z344, (6aR)-8-acryloyl-4-chloro-1-((2,2-dimethyl-4-morpholinopyrrolidin-1-yl))-3-(2-fluoro-6-hydroxyphenyl)-6,6a,7,8,9,10-hexahydro-12H-pyrazino[2,1-c]pyrido[3,4-f][1,4]oxazepin-12-one]
18 | 8.30 | 8.30 | C=CC(=O)N1CCN2C(=O)c3c(N4C[C@H](OC)CC4(C)C)nc(-c4c(O)cccc4F)c(Cl)c3OC[C@H]2C1 (single isomer, unassigned) [Z244-2]
19 | 6.91 | 7.52 | C=CC(=O)N1CCN2C(=O)c3c(N4C[C@H](N(C)C)C[C@@H]4C)nc(-c4c(O)cccc4F)c(Cl)c3OC[C@H]2C1 [Z237-1, (6aR)-8-acryloyl-4-chloro-1-((2S,4R)-4-(dimethylamino)-2-methylpyrrolidin-1-yl)-3-(2-fluoro-6-hydroxyphenyl)-6,6a,7,8,9,10-hexahydro-12H-pyrazino[2,1-c]pyrido[3,4-f][1,4]oxazepin-12-one]
20 | 8.05 | 7.92 | C=CC(=O)N1CCN2C(=O)c3c(N4CCC(OC)C4(C)C)nc(-c4c(O)cccc4F)c(Cl)c3OC[C@H]2C1 (stereo partly drawn) [Z241a, (6aR)-8-acryloyl-4-chloro-3-(2-fluoro-6-hydroxyphenyl)-1-(3-methoxy-2,2-dimethylpyrrolidin-1-yl)-6,6a,7,8,9,10-hexahydro-12H-pyrazino[2,1-c]pyrido[3,4-f][1,4]oxazepin-12-one]
21 | 6.95 | 7.08 | C=CC(=O)N1CCN2C(=O)c3c(N4CC(C)(C)OC[C@@H]4C)nc(-c4c(O)cccc4F)c(Cl)c3OC[C@H]2C1 [Z276-1, (6aR)-8-acryloyl-4-chloro-3-(2-fluoro-6-hydroxyphenyl)-1-((S)-2,2,5-trimethylmorpholino)-6,6a,7,8,9,10-hexahydro-12H-pyrazino[2,1-c]pyrido[3,4-f][1,4]oxazepin-12-one]
22 | 7.41 | 7.34 | C=CC(=O)N1CCN2C(=O)c3c(N4CC[C@@H](OC)[C@@H]4C)nc(-c4c(O)cccc4F)c(Cl)c3OC[C@H]2C1 [Z338-1, (6aR)-8-acryloyl-4-chloro-3-(2-fluoro-6-hydroxyphenyl)-1-((2S,3R)-3-methoxy-2-methylpyrrolidin-1-yl)-6,6a,7,8,9,10-hexahydro-12H-pyrazino[2,1-c]pyrido[3,4-f][1,4]oxazepin-12-one]
23 | 7.80 | 7.82 | C=CC(=O)N1CCN2C(=O)c3c(N4C[C@@H](N(C)C)CC4(C)C)nc(-c4c(O)cccc4F)c(Cl)c3OC[C@H]2C1 (single isomer, unassigned) [Z324-1]
24 | 7.39 | 7.21 | C=CC(=O)N1CCN2C(=O)c3c(N4Cc5nn(C)cc5[C@@H]4C)nc(-c4c(O)cccc4F)c(Cl)c3OC[C@H]2C1 (single isomer, unassigned) [Z345-2]
25 | 7.58 | 7.64 | C=CC(=O)N1CCN2C(=O)c3c(N4C[C@@H](N(C)CCOC)C[C@@H]4C)nc(-c4c(O)cccc4F)c(Cl)c3OC[C@H]2C1 [Z358-1]
26 | 7.12 | 7.59 | C=CC(=O)N1CCN2C(=O)c3c(N4CCN(CCOC)C[C@@H]4C)nc(-c4c(O)cccc4F)c(Cl)c3OC[C@H]2C1 [Z257a, (6aR)-8-acryloyl-4-chloro-3-(2-fluoro-6-hydroxyphenyl)-1-((S)-4-(2-methoxyethyl)-2-methylpiperazin-1-yl)-6,6a,7,8,9,10-hexahydro-12H-pyrazino[2,1-c]pyrido[3,4-f][1,4]oxazepin-12-one]
27 | 7.74 | 7.66 | C=CC(=O)N1CCN2C(=O)c3c(N4CCC(O)C4(C)C)nc(-c4c(O)cccc4F)c(Cl)c3OC[C@H]2C1 (stereo partly drawn) [Z241, (6aR)-8-acryloyl-1-(3-hydroxy-2,2-dimethylpyrrolidin-1-yl)-4-chloro-3-(2-fluoro-6-hydroxyphenyl)-6,6a,7,8,9,10-hexahydro-12H-pyrazino[2,1-c]pyrido[3,4-f][1,4]oxazepin-12-one]
28 | 7.13 | 7.08 | C=CC(=O)N1CCN2C(=O)c3c(N4CCN(C)C[C@@H]4C)nc(-c4c(F)ccc(Cl)c4O)c(Cl)c3OC[C@H]2C1 [Z342, (6aR)-8-acryloyl-4-chloro-3-(3-chloro-6-fluoro-2-hydroxyphenyl)-1-((S)-2,4-dimethylpiperazin-1-yl)-6,6a,7,8,9,10-hexahydro-12H-pyrazino[2,1-c]pyrido[3,4-f][1,4]oxazepin-12-one]
